The source of these data is US7465724B2, “Bis-pyrrolo[2,1-c][1,4]benzodiazepine-anthraquinone conjugates and a process for the preparation thereof” (Council of Scientific and Industrial Research, priority 2006, dated 2008).

pIC50: −log10 of the molar value.

Holding throughout (format): cell-based, human
Common to all, as to settings: 48 h continuous drug exposure; dose to inhibit cell growth by 50% vs untreated cell controls

One test relates to MCF7. The experiment in a line: In vitro cytotoxicity, SRB assay, MCF7. Here is the method:
(§1) Cytotoxicity: Compounds Va-c have been evaluated for the primary anticancer activity in selected human cancer cell lines. For each compound, dose response curves against each cell line were measured at a minimum of five concentrations at 10 fold dilutions. A protocol of 48 h continuous drug exposure was used and a sulforhodamine B (SRB) protein assay was used to estimate cell viability or growth. The concentration causing 50% cell growth inhibition compared with the control has been calculated.

A further test has as its system ZR-75-1. Briefly: In vitro cytotoxicity, SRB assay, ZR-75-1. Here is the method:
as §1

Another test deals with Colo205. Briefly: In vitro cytotoxicity, SRB assay, Colo205. Here is the method: as §1
(In SRB staining, fixed cells bind dye roughly in proportion to their protein.)

The subject of another test is PC3. The experiment in a line: In vitro cytotoxicity, SRB assay, PC3. Here is the method:
as §1

A further test relates to SiHa. Briefly: In vitro cytotoxicity, SRB assay, SiHa. How it is done: as §1
In a further test the test system is A2780. Briefly: In vitro cytotoxicity, SRB assay, A2780. How it is done: as §1
The next test relates to Hop62. The experiment in a line: In vitro cytotoxicity, SRB assay, Hop62. Here is the method:
as §1

The pIC50 is the negative decadic logarithm of the IC50, by convention in mol/L. Low readings indicate a high IC50, high ones a low IC50. Regarding `COc1cc2c(cc1OCCCOc1ccc(OCCCOc3cc4c(cc3OC)C(=O)N3CCC[C@H]3C=N4)c3c1C(=O)c1ccccc1C3=O)N=C[C@@H]1CCCN1C2=O` [Va, 1,4-Bis-{3-[7-methoxy-8-oxy-(11aS)-1,2,3,11atetrahydro-5H-pyrrolo [2,1-c][1,4]-benzodiazepin-5-one]propyloxy}anthracene-9,10-dione], the pIC50 in the test with MCF7 was 6.22; in the test on ZR-75-1, 6.30; with Colo205, more than 6.00; with PC3 it was 6.22; with SiHa it was 6.10; with A2780, 6.22. This compound showed a pIC50 with Hop62 of more than 6.00.

Take `COc1cc2c(cc1OCCCCOc1ccc(OCCCCOc3cc4c(cc3OC)C(=O)N3CCC[C@H]3C=N4)c3c1C(=O)c1ccccc1C3=O)N=C[C@@H]1CCCN1C2=O` [Vb, 1,4-Bis-{4-[7-methoxy-8-oxy-(11aS)-1,2,3,11atetrahydro-5H-pyrrolo [2,1-c][1,4]benzodiazepin-5-one]butyloxy}anthracene-9,10-dione]: the pIC50 in the test with MCF7 is 5.05; with Colo205 it was 5.00; with PC3 it was 5.15; with SiHa it was 5.05; with A2780 it was 5.00.

As for `COc1cc2c(cc1OCCCCCOc1ccc(OCCCCCOc3cc4c(cc3OC)C(=O)N3CCC[C@H]3C=N4)c3c1C(=O)c1ccccc1C3=O)N=C[C@@H]1CCCN1C2=O` [Vc, 1,4-Bis-{5-[7-methoxy-8-oxy-(11aS)-1,2,3,11atetrahydro-5H-pyrrolo [2,1-c][1,4]benzodiazepin-5-one]pentyloxy}anthracene-9,10-dione], the pIC50 is 5.92 in the test on MCF7; 5.82 in the test on ZR-75-1; more than 6.00 in the test with Colo205; 6.00 in the test on PC3; 6.10 in the test on SiHa; 6.22 with A2780. In the test on Hop62, this compound had a pIC50 of 5.85.
